Counter-ions that a name gives are not always drawn.
Biological target: T1, G9a (Homo sapiens, UniProt Q96KQ7)
T1 sequence (Q96KQ7 1-1210): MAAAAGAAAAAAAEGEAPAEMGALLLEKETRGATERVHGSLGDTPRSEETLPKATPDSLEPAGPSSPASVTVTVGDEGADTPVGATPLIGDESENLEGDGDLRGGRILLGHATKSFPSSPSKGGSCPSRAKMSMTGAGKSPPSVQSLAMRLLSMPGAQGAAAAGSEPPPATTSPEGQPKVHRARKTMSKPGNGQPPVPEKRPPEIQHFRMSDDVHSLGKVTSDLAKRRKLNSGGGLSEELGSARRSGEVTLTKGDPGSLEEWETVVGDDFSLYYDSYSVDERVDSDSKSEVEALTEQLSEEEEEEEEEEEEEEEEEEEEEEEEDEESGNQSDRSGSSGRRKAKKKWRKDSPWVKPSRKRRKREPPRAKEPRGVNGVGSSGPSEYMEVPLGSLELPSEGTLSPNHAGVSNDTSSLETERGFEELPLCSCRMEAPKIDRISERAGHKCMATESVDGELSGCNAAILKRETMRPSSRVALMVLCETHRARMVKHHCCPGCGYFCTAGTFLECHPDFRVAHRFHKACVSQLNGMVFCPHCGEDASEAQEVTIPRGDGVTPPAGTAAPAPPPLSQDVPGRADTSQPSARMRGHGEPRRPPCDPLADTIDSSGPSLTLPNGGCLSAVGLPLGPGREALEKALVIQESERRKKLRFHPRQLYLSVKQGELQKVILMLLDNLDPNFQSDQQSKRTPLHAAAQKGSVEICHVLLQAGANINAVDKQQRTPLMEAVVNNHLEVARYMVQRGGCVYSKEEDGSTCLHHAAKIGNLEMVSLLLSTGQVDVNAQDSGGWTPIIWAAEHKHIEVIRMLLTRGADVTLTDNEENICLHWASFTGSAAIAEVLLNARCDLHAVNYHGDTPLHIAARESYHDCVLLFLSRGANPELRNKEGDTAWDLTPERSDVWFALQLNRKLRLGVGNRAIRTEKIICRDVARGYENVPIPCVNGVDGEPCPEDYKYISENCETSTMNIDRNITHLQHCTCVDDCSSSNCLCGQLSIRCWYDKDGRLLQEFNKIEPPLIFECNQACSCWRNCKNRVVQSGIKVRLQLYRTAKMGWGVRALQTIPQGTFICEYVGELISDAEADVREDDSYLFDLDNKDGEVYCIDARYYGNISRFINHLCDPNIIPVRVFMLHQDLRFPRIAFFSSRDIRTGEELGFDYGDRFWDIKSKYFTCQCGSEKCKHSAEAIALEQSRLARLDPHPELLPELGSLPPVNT
Assay: G9a AlphaLISA enzymatic activity assay
Format: biochemical
Settings: 0.15 nM G9a, 15 uM S-adenosyl-methionine, 100 nM biotinylated histone 3 peptide (1-21), 1 hour at room temperature; read-out: G9a in (uM) (IC50, concentration that produced 50% inhibition)
Excerpt: The G9a AlphaLISA assay was used to detect the methyl modifications of a biotinylated histone H3 peptide by the compounds. These modifications are done by the histone methyl transferase activity of the G9a enzyme. The assay consists of reading a chemiluminescent signal at 615 nm; this signal is generated by a laser excitation at 680 nm that transfers a reactive singlet oxygen between the donor beads and acceptor beads. Donor beads are streptavidin conjugated and bind to the biotin on the peptide. Acceptor beads are conjugated with an antibody that recognizes the specific G9a methyl mark on the peptide. If there is a methyl mark on the peptide, the acceptor beads will bind to the peptide. Upon binding, the acceptor beads will be in close proximity (<200 nm) of the donor beads and when the donor beads are excited, the transfer of the oxygen can occur and a strong signal will be generated. If there is no methyl mark, the interaction between beads will not occur and signal will be at background levels.
For the assay, the following buffer was used to set up reactions: 50 mM Tris-HCl pH9, 50 mM NaCl, 0.01% Tween-20 and 1 mM DTT (added fresh prior to starting the reactions). The assay is set up by adding a final concentration of 0.15 nM G9a, 15 uM S-adenosyl-methionine and, 100 nM biotinylated histone 3 peptide (1-21). The reaction is incubated at room temperature for 1 hour, and subsequently quenched by the addition of the acceptor beads (anti-H3k9me2 AlphaLISA acceptor beads, PerkinElmer # AL117) at a final concentration of 20 ug/mL. The acceptor beads are incubated for 1 hour. After 1 hour, the donor beads are added at a final concentration of 20 ug/mL (Alpha Streptavidin donor beads, PerkinElmer #6760002). Donor beads are incubated for 0.5 hours. Both donor and acceptor beads are resuspended in AlphaLISA 5X Epigenetics Buffer 1 Kit (PerkinElmer # AL008) prior to addition to the reaction. All manipulations and incubations with the donor and acceptor beads are done in subdued light. Signal is detected in an EnVision plate reader in Alpha mode (see ACS Med Chem Lett. 2014 Jan. 2; 5(2):205-9. doi: 10.1021/m1400496h. eCollection 2014. Discovery and development of potent and selective inhibitors of histone methyltransferase g9a.)
Percent inhibition was calculated for each compound dilution and the concentration that produced 50% inhibition was calculated. This value is presented as the IC50.

Structure (SMILES)	IC50
COc1cc2c3c(c(NCC4CCC4)nc2cc1OCCCN1CCCC1)CCC3 [Example 49, N-(cyclobutylmethyl)-8-methoxy-7-[3-(pyrrolidin-1-yl)propoxy]-1H,2H,3H-cyclopenta[c]quinolin-4-amine formate]	0.046 µM
COc1cc2c3c(c(NC(C)C)nc2cc1OCCCN1CCCC1)COCC3 [Example 50, 9-methoxy-N-(propan-2-yl)-8-[3-(pyrrolidin-1-yl)propoxy]-1H,2H,4H-pyrano[3,4-c]quinolin-5-amine formate]	0.24 µM
COc1cc2c3c(c(NC(C)C)nc2cc1OCC1CCN(C)C1)CCCC3 (stereo not drawn) [Example 51, 2-methoxy-3-[(1-methylpyrrolidin-3-yl)methoxy]-N-(propan-2-yl)-7,8,9,10-tetrahydrophenanthridin-6-amine formate]	0.88 µM
COc1cc2c(cc1OCCCN1CCCC1)nc(NC(C)C)c1cccnc12 [Example 52, 9-methoxy-N-(propan-2-yl)-8-[3-(pyrrolidin-1-yl)propoxy]benzo[h]1,6-naphthyridin-5-amine formate]	0.34 µM
CNc1nc2cc(OCCCN3CCCC3)c(OC)cc2c2c1CC(C)(C)C2 [Example 53, 8-methoxy-N,2,2-trimethyl-7-[3-(pyrrolidin-1-yl)propoxy]-1H,2H,3H-cyclopenta[c]quinolin-4-amine formate]	0.043 µM
COc1cc2c3c(c(NC(C)C)nc2cc1OCCCN1CCCC1)CC(C)(C)C3 [Example 54, 8-methoxy-2,2-dimethyl-N-(propan-2-yl)-7-[3-(pyrrolidin-1-yl)propoxy]-1H,2H,3H-cyclopenta[c]quinolin-4-amine formate]	0.048 µM
COc1cc2c3c(c(NC4CC4)nc2cc1OCCCN1CCCC1)COCC3 [Example 55, N-cyclopropyl-9-methoxy-8-[3-(pyrrolidin-1-yl)propoxy]-1H,2H,4H-pyrano[3,4-c]-quinolin-5-amine formate]	0.32 µM
COc1cc2c(cc1OCCCN1CCCC1)nc(O)n1nccc21 [Example 56, 9-methoxy-8-[3-(pyrrolidin-1-yl)propoxy]pyrazolo[1,5-c]quinazolin-5-ol formate]	0.46 µM
CNc1nc2cc(OCCCN3CCCC3)c(OC)cc2c2c1COCC2 [Example 57, 9-methoxy-N-methyl-8-[3-(pyrrolidin-1-yl)propoxy]-1H,2H,4H-pyrano[3,4-c]quinolin-5-amine formate]	0.21 µM
CCNc1nc2cc(OCCCN3CCCC3)c(OC)cc2c2c1COCC2 [Example 58, N-ethyl-9-methoxy-8-[3-(pyrrolidin-1-yl)propoxy]-1H,2H,4H-pyrano[3,4-c]quinolin-5-amine formate]	0.17 µM
CNc1nc2cc(OCCCN3CCCC3)c(OC)cc2c2c1COC2 [Example 59, 8-methoxy-N-methyl-7-[3-(pyrrolidin-1-yl)propoxy]-1H,3H-furo[3,4-c]quinolin-4-amine formate]	0.23 µM
CCNc1nc2cc(OCCCN3CCCC3)c(OC)cc2c2c1COC2 [Example 60, N-ethyl-8-methoxy-7-[3-(pyrrolidin-1-yl)propoxy]-1H,3H-furo[3,4-c]quinolin-4-amine formate]	0.21 µM
CNc1nc2cc(OCCCN3CCCC3)c(OC)cc2c2c1CC(O)CC2 (stereo not drawn) [Example 61, 2-methoxy-6-(methylamino)-3-[3-(pyrrolidin-1-yl)propoxy]-7,8,9,10-tetrahydrophenanthridin-8-ol formate]	0.14 µM
COc1cc2c3c(c(NC4(C(=O)O)CC4)nc2cc1OCCCN1CCCC1)CCC3 [Example 62, 1-({8-methoxy-7-[3-(pyrrolidin-1-yl)propoxy]-1H,2H,3H-cyclopenta[c]quinolin-4-yl}amino)cyclopropane-1-carboxylic acid formate]	0.12 µM
COc1cc2c3c(c(NC(C)C)nc2c(F)c1OCCCN1CCCC1)CCC3 [Example 63, 6-fluoro-8-methoxy-N-(propan-2-yl)-7-[3-(pyrrolidin-1-yl)propoxy]-1H,2H,3H-cyclopenta[c]quinolin-4-amine formate]	2.3 µM
